In paper PMC7265341, “Quantifying CDK inhibitor selectivity in live cells” (Nature Communications, 2020):
Read-outs that look alike come from different tables or passages of the source.

What was measured:
CDK4/Cyclin D1 = CDK4/Cyclin D1 (Homo sapiens, UniProt P11802); test: NanoBRET live-cell target engagement, NanoLuc-CDK4/Cyclin D1 in HEK-293; format: binding; conditions: CDK4/D1, read-out: Inhibition at 10µM (%)
CDK1/Cyclin E1 = CDK1/Cyclin E1 (Homo sapiens, UniProt P06493); test: NanoBRET live-cell target engagement, CDK1-NanoLuc/Cyclin E1 in HEK-293; format: binding; conditions: CDK1/E1, read-out: Inhibition at 10µM (%)
CDK11B/Cyclin L2 = CDK11B/Cyclin L2 (Homo sapiens, UniProt P21127); test: NanoBRET live-cell target engagement, CDK11B-NanoLuc/Cyclin L2 in HEK-293; format: binding; conditions: CDK11b/L2, read-out: Inhibition at 10µM (%)
CDK6/Cyclin D1 = CDK6/Cyclin D1 (Homo sapiens, UniProt Q00534); test: NanoBRET live-cell target engagement, NanoLuc-CDK6/Cyclin D1 in HEK-293; format: binding; conditions: CDK6/D1, read-out: Inhibition at 10µM (%)
Sequence of CDK6/Cyclin D1 (Q00534 whole entry): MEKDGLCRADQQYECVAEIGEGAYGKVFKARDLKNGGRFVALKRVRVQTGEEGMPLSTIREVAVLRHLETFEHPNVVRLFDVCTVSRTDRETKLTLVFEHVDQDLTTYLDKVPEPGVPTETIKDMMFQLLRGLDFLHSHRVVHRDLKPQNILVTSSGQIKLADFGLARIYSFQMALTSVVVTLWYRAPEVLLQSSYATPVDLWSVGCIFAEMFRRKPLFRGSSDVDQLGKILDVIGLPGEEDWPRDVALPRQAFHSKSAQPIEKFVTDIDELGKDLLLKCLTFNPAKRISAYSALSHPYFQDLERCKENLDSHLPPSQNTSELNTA
Sequence of CDK6/Cyclin D1 (P24385 whole entry partner): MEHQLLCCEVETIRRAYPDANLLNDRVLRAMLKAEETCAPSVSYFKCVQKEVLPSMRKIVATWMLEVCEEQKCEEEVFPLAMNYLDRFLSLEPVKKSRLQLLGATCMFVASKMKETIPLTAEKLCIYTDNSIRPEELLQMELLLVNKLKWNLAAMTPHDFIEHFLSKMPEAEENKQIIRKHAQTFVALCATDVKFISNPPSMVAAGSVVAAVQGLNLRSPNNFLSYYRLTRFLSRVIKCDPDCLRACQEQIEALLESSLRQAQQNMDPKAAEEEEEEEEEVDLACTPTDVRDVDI

CDK9/Cyclin K = CDK9/Cyclin K (Homo sapiens, UniProt P50750); test: NanoBRET live-cell target engagement, NanoLuc-CDK9/Cyclin K in HEK-293; format: binding; conditions: CDK9/K, read-out: Inhibition at 10µM (%)
CDK19/Cyclin C = CDK19/Cyclin C (Homo sapiens, UniProt Q9BWU1); test: NanoBRET live-cell target engagement, NanoLuc-CDK19/Cyclin C in HEK-293; conditions: for inhibition at 10 µM: read-out: Inhibition at 10µM (%), CDK19/C
Sequence of CDK19/Cyclin C (Q9BWU1 whole entry): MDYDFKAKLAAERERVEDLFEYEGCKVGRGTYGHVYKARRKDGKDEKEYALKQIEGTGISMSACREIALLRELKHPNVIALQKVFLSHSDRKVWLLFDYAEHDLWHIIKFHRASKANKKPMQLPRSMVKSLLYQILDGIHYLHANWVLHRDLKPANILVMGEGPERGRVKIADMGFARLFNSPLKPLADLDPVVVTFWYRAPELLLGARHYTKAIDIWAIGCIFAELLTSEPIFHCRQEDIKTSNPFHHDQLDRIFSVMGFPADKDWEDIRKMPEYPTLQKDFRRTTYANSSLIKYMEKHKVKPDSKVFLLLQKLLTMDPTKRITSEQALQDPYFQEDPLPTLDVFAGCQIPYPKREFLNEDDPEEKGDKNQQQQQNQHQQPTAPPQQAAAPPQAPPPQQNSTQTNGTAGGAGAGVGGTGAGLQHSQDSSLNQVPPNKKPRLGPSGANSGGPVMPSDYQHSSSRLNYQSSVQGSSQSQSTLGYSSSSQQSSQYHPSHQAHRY
Sequence of CDK19/Cyclin C (P24863 whole entry partner): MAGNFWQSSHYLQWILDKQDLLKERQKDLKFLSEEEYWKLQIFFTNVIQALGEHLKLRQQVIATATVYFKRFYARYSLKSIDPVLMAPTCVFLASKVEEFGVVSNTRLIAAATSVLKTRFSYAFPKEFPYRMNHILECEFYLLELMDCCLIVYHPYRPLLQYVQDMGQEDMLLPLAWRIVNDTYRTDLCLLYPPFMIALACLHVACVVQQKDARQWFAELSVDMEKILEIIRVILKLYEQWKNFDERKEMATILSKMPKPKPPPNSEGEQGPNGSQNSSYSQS

CDK20/Cyclin H = CDK20/Cyclin H (Homo sapiens, UniProt Q8IZL9); test: NanoBRET live-cell target engagement, NanoLuc-CDK20/Cyclin H in HEK-293; format: binding; conditions: CDK20/H, read-out: Inhibition at 10µM (%)
CDK8/Cyclin C = CDK8/Cyclin C (Homo sapiens, UniProt P49336); test: NanoBRET live-cell target engagement, NanoLuc-CDK8/Cyclin C in HEK-293; format: binding; conditions: CDK8/C, read-out: Inhibition at 10µM (%)
Sequence of CDK8/Cyclin C (P49336 whole entry): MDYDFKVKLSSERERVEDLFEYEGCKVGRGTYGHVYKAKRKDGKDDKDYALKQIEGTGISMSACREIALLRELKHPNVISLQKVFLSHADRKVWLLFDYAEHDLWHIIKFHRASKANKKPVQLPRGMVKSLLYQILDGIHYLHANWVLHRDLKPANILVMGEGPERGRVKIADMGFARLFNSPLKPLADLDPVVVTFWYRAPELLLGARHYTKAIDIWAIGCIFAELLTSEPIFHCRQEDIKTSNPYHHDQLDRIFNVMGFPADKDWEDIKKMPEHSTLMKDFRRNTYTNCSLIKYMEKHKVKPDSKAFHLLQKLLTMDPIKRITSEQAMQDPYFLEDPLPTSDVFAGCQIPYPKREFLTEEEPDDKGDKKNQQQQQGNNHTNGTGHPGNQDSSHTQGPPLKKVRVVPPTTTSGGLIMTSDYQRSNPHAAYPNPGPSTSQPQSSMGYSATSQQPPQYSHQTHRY
Sequence of CDK8/Cyclin C (P24863 whole entry partner): as the sequence (P24863 whole entry partner) above

CDK10/Cyclin L2 = CDK10/Cyclin L2 (Homo sapiens, UniProt Q15131); test: NanoBRET live-cell target engagement, CDK10-NanoLuc/Cyclin L2 in HEK-293; conditions: read-out: Inhibition at 10µM (%), CDK10/L2
Sequence of CDK10/Cyclin L2 (Q15131 whole entry): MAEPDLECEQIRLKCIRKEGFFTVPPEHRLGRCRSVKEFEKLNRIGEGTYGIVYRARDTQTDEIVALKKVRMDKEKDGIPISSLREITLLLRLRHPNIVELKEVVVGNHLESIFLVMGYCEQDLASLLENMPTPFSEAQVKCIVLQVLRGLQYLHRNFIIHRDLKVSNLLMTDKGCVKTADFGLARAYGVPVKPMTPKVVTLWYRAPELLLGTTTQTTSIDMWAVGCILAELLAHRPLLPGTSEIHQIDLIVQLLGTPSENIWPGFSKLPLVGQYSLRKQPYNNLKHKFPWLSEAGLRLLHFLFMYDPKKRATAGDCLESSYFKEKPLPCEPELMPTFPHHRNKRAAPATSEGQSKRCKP

CDK7 = CDK7 (Homo sapiens, UniProt P50613); test: NanoBRET live-cell target engagement, NanoLuc-CDK7 in HEK-293; format: binding; conditions: CDK7, read-out: Inhibition at 10µM (%)
Sequence of CDK7 (P50613 whole entry): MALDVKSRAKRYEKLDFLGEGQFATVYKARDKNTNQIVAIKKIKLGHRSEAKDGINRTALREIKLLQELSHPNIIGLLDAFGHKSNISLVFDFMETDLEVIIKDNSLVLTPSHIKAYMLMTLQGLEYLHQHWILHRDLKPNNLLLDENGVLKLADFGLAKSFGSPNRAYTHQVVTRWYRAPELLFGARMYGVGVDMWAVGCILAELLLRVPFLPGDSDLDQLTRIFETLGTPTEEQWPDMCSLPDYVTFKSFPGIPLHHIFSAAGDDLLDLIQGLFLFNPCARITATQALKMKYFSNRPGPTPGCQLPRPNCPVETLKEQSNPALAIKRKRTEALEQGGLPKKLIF

CDK11A/Cyclin L2 = molecular target: T1, CDK11A/Cyclin L2 (Homo sapiens, UniProt Q9UQ88); test: NanoBRET live-cell target engagement, CDK11A-NanoLuc/Cyclin L2 in HEK-293; format: binding; conditions: CDK11a/L2, read-out: Inhibition at 10µM (%)
T1 sequence (Q9UQ88 1-783): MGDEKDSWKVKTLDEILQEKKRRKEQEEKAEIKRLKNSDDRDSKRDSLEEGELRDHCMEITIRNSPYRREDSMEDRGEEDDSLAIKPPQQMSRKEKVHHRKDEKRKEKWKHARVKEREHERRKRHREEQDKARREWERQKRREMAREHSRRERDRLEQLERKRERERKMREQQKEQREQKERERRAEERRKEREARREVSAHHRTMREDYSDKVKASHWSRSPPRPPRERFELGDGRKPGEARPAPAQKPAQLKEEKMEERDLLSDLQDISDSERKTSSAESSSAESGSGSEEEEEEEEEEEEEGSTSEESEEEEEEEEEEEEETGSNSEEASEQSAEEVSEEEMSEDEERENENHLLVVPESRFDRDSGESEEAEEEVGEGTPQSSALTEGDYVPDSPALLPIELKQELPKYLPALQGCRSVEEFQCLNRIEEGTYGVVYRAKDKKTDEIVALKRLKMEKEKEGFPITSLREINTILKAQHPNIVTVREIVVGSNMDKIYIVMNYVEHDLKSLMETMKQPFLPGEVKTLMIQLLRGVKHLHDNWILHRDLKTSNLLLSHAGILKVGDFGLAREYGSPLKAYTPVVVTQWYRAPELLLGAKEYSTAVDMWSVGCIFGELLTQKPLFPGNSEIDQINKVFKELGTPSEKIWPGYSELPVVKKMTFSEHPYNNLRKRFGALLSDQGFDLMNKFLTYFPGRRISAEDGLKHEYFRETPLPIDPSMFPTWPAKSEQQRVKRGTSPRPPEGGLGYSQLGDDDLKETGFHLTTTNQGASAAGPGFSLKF

CDK12/Cyclin K = CDK12/Cyclin K (Homo sapiens, UniProt Q9NYV4); test: NanoBRET live-cell target engagement, CDK12-NanoLuc/Cyclin K in HEK-293; format: binding; conditions: for inhibition at 10 µM: CDK12/K, read-out: Inhibition at 10µM (%)
Sequence of CDK12/Cyclin K (Q9NYV4 1-1481 isoform Q9NYV4-2): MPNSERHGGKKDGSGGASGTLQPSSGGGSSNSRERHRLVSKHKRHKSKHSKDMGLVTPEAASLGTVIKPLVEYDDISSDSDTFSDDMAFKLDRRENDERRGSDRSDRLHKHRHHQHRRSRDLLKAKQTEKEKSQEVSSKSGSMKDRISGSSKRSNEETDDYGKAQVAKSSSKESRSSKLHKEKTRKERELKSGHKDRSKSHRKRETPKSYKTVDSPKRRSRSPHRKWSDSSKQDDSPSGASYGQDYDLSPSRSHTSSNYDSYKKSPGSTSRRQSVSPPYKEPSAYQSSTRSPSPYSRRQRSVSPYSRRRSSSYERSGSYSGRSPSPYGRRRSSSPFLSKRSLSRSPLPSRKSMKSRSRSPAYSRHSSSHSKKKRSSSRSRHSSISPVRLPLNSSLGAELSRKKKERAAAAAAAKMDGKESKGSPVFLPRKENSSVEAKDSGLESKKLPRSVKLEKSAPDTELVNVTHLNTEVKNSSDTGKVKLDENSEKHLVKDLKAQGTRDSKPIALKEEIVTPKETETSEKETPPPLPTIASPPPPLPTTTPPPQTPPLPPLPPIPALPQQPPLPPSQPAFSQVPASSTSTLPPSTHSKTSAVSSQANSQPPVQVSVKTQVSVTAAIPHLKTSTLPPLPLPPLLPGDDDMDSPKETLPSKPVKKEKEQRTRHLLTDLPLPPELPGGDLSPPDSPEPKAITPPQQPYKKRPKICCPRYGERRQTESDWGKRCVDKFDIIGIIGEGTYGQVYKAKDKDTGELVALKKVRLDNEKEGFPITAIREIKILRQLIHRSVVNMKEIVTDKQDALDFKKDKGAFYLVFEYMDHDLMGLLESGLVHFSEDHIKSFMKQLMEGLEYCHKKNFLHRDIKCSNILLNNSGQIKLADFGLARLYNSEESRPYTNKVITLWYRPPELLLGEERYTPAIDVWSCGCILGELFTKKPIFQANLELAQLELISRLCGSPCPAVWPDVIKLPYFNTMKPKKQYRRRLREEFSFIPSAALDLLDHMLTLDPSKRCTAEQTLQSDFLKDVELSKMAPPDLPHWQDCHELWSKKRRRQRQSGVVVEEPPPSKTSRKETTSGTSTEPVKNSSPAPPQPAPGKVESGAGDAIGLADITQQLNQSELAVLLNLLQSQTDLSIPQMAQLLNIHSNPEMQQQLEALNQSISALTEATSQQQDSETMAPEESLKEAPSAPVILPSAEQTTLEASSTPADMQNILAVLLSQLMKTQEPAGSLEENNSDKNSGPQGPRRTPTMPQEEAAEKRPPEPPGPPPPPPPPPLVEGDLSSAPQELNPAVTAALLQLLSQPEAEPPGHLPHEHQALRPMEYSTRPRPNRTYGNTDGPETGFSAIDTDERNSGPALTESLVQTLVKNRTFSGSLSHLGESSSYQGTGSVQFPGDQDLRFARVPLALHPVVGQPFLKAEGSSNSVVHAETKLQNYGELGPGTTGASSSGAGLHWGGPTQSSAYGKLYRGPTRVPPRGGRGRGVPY
Sequence of CDK12/Cyclin K (O75909 whole entry partner): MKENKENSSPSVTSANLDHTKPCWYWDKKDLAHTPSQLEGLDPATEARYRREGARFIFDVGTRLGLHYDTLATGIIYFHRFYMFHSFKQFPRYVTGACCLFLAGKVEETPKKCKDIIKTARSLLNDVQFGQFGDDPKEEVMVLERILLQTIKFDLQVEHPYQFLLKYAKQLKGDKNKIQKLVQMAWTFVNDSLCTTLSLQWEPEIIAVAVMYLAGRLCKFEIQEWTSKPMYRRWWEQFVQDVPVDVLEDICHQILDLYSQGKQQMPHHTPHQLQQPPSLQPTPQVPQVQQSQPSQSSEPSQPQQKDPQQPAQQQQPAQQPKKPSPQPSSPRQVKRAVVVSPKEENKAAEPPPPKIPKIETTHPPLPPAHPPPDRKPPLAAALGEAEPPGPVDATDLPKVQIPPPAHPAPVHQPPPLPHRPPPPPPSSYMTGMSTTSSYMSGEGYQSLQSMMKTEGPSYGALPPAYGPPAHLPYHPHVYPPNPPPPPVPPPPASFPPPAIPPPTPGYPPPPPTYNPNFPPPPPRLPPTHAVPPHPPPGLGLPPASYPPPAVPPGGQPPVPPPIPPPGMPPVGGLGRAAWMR

CDK13/Cyclin K = CDK13/Cyclin K (Homo sapiens, UniProt Q14004); test: NanoBRET live-cell target engagement, CDK13-NanoLuc/Cyclin K in HEK-293; format: binding; conditions: for inhibition at 10 µM: CDK13/K, read-out: Inhibition at 10µM (%)
CDK5/CDK5R1 = CDK5/CDK5R1 (Homo sapiens, UniProt Q00535); test: NanoBRET live-cell target engagement, CDK5-NanoLuc/CDK5R1 in HEK-293; format: binding; conditions: CDK5/CDK5R1, read-out: Inhibition at 10µM (%)

SMILES: CN1CC[C@H](c2c(O)cc(O)c3c(=O)cc(-c4ccccc4Cl)oc23)[C@H](O)C1 [Flavopiridol]
- inhibition at 10 µM (CDK4/Cyclin D1; average): 90.8%
- inhibition at 10 µM (CDK4/Cyclin D1; experiment 1): 88.6%
- inhibition at 10 µM (CDK4/Cyclin D1; experiment 2): 93%
- inhibition at 10 µM (CDK1/Cyclin E1; average): 72.2%
- inhibition at 10 µM (CDK1/Cyclin E1; experiment 1): 65.7%
- inhibition at 10 µM (CDK1/Cyclin E1; experiment 2): 78.8%
- inhibition at 10 µM (CDK11B/Cyclin L2; average): 47.4%
- inhibition at 10 µM (CDK11B/Cyclin L2; experiment 1): 40.9%
- inhibition at 10 µM (CDK11B/Cyclin L2; experiment 2): 54%
- inhibition at 10 µM (CDK6/Cyclin D1; average): 86.6%
- inhibition at 10 µM (CDK6/Cyclin D1; experiment 1): 83.3%
- inhibition at 10 µM (CDK6/Cyclin D1; experiment 2): 89.9%
- inhibition at 10 µM (CDK9/Cyclin K; average): 97.8%
- inhibition at 10 µM (CDK9/Cyclin K; experiment 1): 97.5%
- inhibition at 10 µM (CDK9/Cyclin K; experiment 2): 98%
- IC50 (CDK19/Cyclin C; IC50 (nM), CDK19/C, experiment 1): 19 nM
- IC50 (CDK19/Cyclin C; IC50 (nM), CDK19/C, experiment 2): 18 nM
- IC50 (CDK19/Cyclin C; IC50 (nM), CDK19/Y (so in the source), average (± SEM where n=3)): 19 nM
- IC50 (CDK19/Cyclin C; IC50 for CDK/cyclin complexes, CDK19/C, live HEK-293, 2 h, mean ± S.E.M. (n=3) or mean (n=2)): 19 nM
- inhibition at 10 µM (CDK19/Cyclin C; average): 95.8%
- inhibition at 10 µM (CDK19/Cyclin C; experiment 1): 98%
- inhibition at 10 µM (CDK19/Cyclin C; experiment 2): 93.5%
- inhibition at 10 µM (CDK20/Cyclin H; experiment 1): 6.3%
- inhibition at 10 µM (CDK20/Cyclin H; experiment 2): 6.5%
- inhibition at 10 µM (CDK8/Cyclin C; average): 95.7%
- inhibition at 10 µM (CDK8/Cyclin C; experiment 1): 96.6%
- inhibition at 10 µM (CDK8/Cyclin C; experiment 2): 94.9%
- inhibition at 10 µM (CDK10/Cyclin L2; average): 38.5%
- inhibition at 10 µM (CDK10/Cyclin L2; experiment 1): 45.2%
- inhibition at 10 µM (CDK10/Cyclin L2; experiment 2): 31.9%
- inhibition at 10 µM (CDK7; average): 72.3%
- inhibition at 10 µM (CDK7; experiment 1): 65.8%
- inhibition at 10 µM (CDK7; experiment 2): 78.8%
- inhibition at 10 µM (CDK11A/Cyclin L2; average): 27.7%
- inhibition at 10 µM (CDK11A/Cyclin L2; experiment 1): 30.2%
- inhibition at 10 µM (CDK11A/Cyclin L2; experiment 2): 25.2%
- inhibition at 10 µM (CDK12/Cyclin K; average): 48.6%
- inhibition at 10 µM (CDK12/Cyclin K; experiment 1): 51.7%
- inhibition at 10 µM (CDK12/Cyclin K; experiment 2): 45.6%
- receptor occupancy at 10 µM (CDK12/Cyclin K; primary screen, live HEK-293, read-out: CDK12 occupancy at 10 µM): ~50%
- inhibition at 10 µM (CDK13/Cyclin K; average): 28%
- inhibition at 10 µM (CDK13/Cyclin K; experiment 1): 33.4%
- inhibition at 10 µM (CDK13/Cyclin K; experiment 2): 22.5%
- receptor occupancy at 10 µM (CDK13/Cyclin K; primary screen, live HEK-293): ~50%
- inhibition at 10 µM (CDK5/CDK5R1; average): 83.1%
- inhibition at 10 µM (CDK5/CDK5R1; experiment 1): 85%
- inhibition at 10 µM (CDK5/CDK5R1; experiment 2): 81.1%
